Assay results: patent publication US12459972B2, “Protease-activated contrast agents for in vivo imaging” (THE BOARD OF TRUSTEES OF THE LELAND STANFORD JUNIOR …, priority 2015, dated 2025)

Experiments:
[1] = test system: 4T1 tumors (tumor associated cysteine cathepsins); experiment: Non-invasive imaging with NIR probes in 4T1 breast cancer model, IVIS-spectrum; assay type: in vivo, mouse; conditions: 24 hour time course
Source text: The optimized substrate probes described above have therefore been tested in a clinically relevant model systems of FGS. […] In these compounds, the Cy5 chromophore was strategically substituted with a similar molecular weight near infrared (NIR) DyLight 780-B1 fluorophore. The compound with a linker having n=6 was chosen based on the optimal turnover numbers by cathepsins in vitro. The QSY21-sulfo quencher was also substituted with IRDye QC-1, which is a dark NIR quencher (FIG. 6A). In addition to being detectable on the camera system of the da Vinci robot, the emission wavelength of the NIR dye (absorption/emission maxima of 783/799 nm) falls within a window with low overall background and will therefore enhance tissue penetration and improve signal to background ratio during imaging. Richards-Kortum and Sevick-Muraca (1996) Annu. Rev. Phys. Chem. 47:555-606. The NIR probes were first analyzed as contrast agents in the 4T1 breast cancer model described above, using the IVIS-spectrum imaging system. Following systemic administration of the contrast agents, mice were imaged non-invasively every hour for 4 hours, and then at 6, 8, 12 and 24 hours post injection of the substrate. […] The intensity of the fluorescence signal in the tumors increased rapidly in mice injected with both types of probes, and it eventually peaked between 4 to 6 hours. […]

[2] = test system: 4T1 tumors (tumor associated cysteine cathepsins); experiment: Non-invasive optical imaging with Cy5 substrates, syngeneic orthotopic 4T1 mouse model of breast cancer; assay type: in vivo; conditions: for Cy5 fluorescence in frozen tumor sections: 24-hour endpoint, histology; for overall absolute fluorescence intensity in the tumors compared to non-lysosomotropic substrates 2CQ and 6CQ: intravenous, non-invasive imaging
Experimental: In this model 4T1 cells are inoculated into the left number 1 and 10 mammary fat pad of mice to generate tumors. In order to determine the impact of the LLE, imaging signals of lysosomotropic probes 2QC (compound 5) and 6QC (compound 7) were directly compared to those of the non-lysosomotropic analogues 2CQ (compound 2) and 6CQ (compound 4). Substrates were administered to tumor-bearing mice intravenously, and mice were imaged at various time points following the administration. […] The intensity of the fluorescent signal reached a maximum at 4 hour after administration, followed by a decrease in the signal intensity (FIG. 4B). […] Furthermore, the intensity of the signal remained constant over a period of 24 hours in the tumors of mice administered with the LLE substrates, whereas the signals from the non-LLE substrates were almost completely cleared after 24 hours (FIGS. 4A and 4B). A similar trend was observed by ex vivo imaging of tumors excised from mice that had been euthanized after 4 hours and after 24 hours (FIG. 4C).
In order to determine which populations of cells are responsible for activating the quenched substrate probes in vivo, immunofluorescence staining on frozen sliced sections of tumors isolated from mice injected with each substrate was performed using a macrophage-selective marker CD68. The Cy5 signal of the substrate co-localized to only CD68-positive cells (macrophages), with no signals observed in the 4T1 tumor cell (FIG. 5A). Moreover, Cy5 fluorescence was only observed in tissues from mice that received nQC substrates and not in tissues from mice treated with nCQ substrates (FIG. 5B).

recombinant cathepsin L = recombinant cathepsin L (Homo sapiens, UniProt P07711); experiment: Enzyme kinetics / turnover of quenched substrates with recombinant cathepsin L; assay type: biochemical; conditions: for increase in catalytic efficiency, spacer n=6 relative to n=2 analog: Cat L, 6CQ vs 2CQ, 6QC vs 2QC; for Km / kcat: recombinant cathepsin L, 5 nM enzyme; for Km: 50 mM citrate buffer pH 5.5, 37° C., average of three replicates ± standard error; for kcat: citrate buffer pH 5.5, 37° C.
Experimental: (§1) The activity and selectivity of all 6 substrates were determined by monitoring the turnover curves of each internally quenched probe in the presence of various recombinant cysteine proteases, specifically cathepsins L, S, K, B, and V. Equal concentration (5 nM) of each enzyme was incubated with the different probes in 50 mM citrate buffer (pH=5.5, 5 mM DTT, 0.1% triton X, 0.5% CHAPS) at 37° C. The exact concentration of the various cathepsins used were confirmed by active site titration (Boucher et al. (2014) Methods Mol. Biol. 1133:3-39) using the covalent cysteine protease inhibitor ZFK-PMK and the commercial substrates Z-VVR-AMC for cathepsins S, L, B, and V, or Z-KR-AMC for cathepsin K. The rate of increase in Cy5 fluorescence (which is indicative of probe cleavage by cathepsins) was measured for each of the probes.

recombinant cathepsin V = recombinant cathepsin V (Homo sapiens, UniProt O60911); experiment: Enzyme kinetics / turnover of quenched substrates with recombinant cathepsin V; assay type: biochemical; conditions: for increase in efficiency, spacer n=6 relative to n=2 analog: Cat V, nCQ and nQC series respectively; for Km / kcat: recombinant cathepsin V, 5 nM enzyme; for Km: 50 mM citrate buffer pH 5.5, 37° C., average of three replicates ± standard error; for kcat: citrate buffer pH 5.5, 37° C.
Experimental: as §1

Sequence of recombinant cathepsin V (O60911 114-334): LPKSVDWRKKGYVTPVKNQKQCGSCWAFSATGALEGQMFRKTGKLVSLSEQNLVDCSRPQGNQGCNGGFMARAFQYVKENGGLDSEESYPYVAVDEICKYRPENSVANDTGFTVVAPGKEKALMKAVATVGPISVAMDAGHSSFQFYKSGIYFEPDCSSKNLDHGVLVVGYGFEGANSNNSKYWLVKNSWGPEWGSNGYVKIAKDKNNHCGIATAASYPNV
Sequence of recombinant cathepsin L (P07711 114-333, species assumed): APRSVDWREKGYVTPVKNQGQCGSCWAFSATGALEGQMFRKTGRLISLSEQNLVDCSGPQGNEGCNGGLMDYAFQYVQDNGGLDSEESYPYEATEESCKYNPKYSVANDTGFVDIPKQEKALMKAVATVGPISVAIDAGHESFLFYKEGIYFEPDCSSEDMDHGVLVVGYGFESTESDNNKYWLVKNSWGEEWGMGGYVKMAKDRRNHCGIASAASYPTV

How did the “clearance rate and signal in tumors relative to the non-LLE substrate” value [1] turn out when `CCN(CC)c1ccc2c(C(C)(C)C)cc(C=CC=CC=C3N(CCCCCC(=O)NCCCCCCNC(=O)[C@H](CCCCNC(=O)CCCCCN4C(=CC=C5CCCC(C=CC6=[N+](CCCS(=O)(=O)O)c7ccc(N(CCCS(=O)(=O)O)CCCS(=O)(=O)O)cc7C6(C)C)=C5Cl)C(C)(C)c5c4ccc4cc(S(=O)(=O)O)ccc54)NC(=O)[C@H](Cc4ccccc4)NC(=O)OCc4ccccc4)c4ccc(S(=O)(=O)O)cc4C3(C)C)[o+]c2c1` [6QCNIR] was run?
The value was “slower clearance rate and brighter signal”.

How did the “Cy5 fluorescence in frozen tumor sections” value [2] turn out when `CC[N+]1=C(C=CC=CC=C2N(CCCCCC(=O)NCCCCCCNC(=O)[C@H](CCCCNC(=O)C3CCN(S(=O)(=O)c4ccccc4-c4c5ccc(=[N+]6CCc7cc(S(=O)(=O)O)ccc76)cc-5oc5cc(N6CCc7cc(S(=O)(=O)O)ccc76)ccc45)CC3)NC(=O)[C@H](Cc3ccccc3)NC(=O)OCc3ccccc3)c3ccc(S(=O)(=O)O)cc3C2(C)C)C(C)(C)c2cc(S(=O)(=O)O)ccc21` [6QC] was run?
Its value is “observed”.

And the “overall absolute fluorescence intensity in the tumors compared to non-lysosomotropic substrates 2CQ and 6CQ” value [2]?
The value was “higher and brighter”.

What about the “increase in catalytic efficiency, spacer n=6 relative to n=2 analog” value (recombinant cathepsin L) of the same molecule?
The value was 6 fold.

What about the Km (recombinant cathepsin L) of the same molecule?
The Km was 5.3 ± 0.8 µM.

What about the kcat (recombinant cathepsin L) of the same molecule?
The kcat was 0.458 s⁻¹.

And the “increase in efficiency, spacer n=6 relative to n=2 analog” value (recombinant cathepsin V)?
The value was 4 fold.

What about the Km (recombinant cathepsin V) of the same molecule?
Its Km is 4.4 ± 0.2 µM.

What about the kcat (recombinant cathepsin V) of the same molecule?
Its kcat is 0.150 s⁻¹.

Which “increase in catalytic efficiency, spacer n=6 relative to n=2 analog” value (recombinant cathepsin L) does the source give for `CC[N+]1=C(C=CC=CC=C2N(CCCCCC(=O)NCCCC[C@H](NC(=O)[C@H](Cc3ccccc3)NC(=O)OCc3ccccc3)C(=O)NCCCCCCNC(=O)C3CCN(S(=O)(=O)c4ccccc4-c4c5ccc(=[N+]6CCc7cc(S(=O)(=O)O)ccc76)cc-5oc5cc(N6CCc7cc(S(=O)(=O)O)ccc76)ccc45)CC3)c3ccc(S(=O)(=O)O)cc3C2(C)C)C(C)(C)c2cc(S(=O)(=O)O)ccc21` [6CQ] here?
Its value is 4 fold.

And the Km (recombinant cathepsin L)?
The Km was 5.4 ± 0.5 µM.

What about the kcat (recombinant cathepsin L) of the same molecule?
The kcat was 0.487 s⁻¹.

And the “increase in efficiency, spacer n=6 relative to n=2 analog” value (recombinant cathepsin V)?
The value was 8 fold.

And the Km (recombinant cathepsin V)?
The Km was 6.8 ± 0.4 µM.

What about the kcat (recombinant cathepsin V) of the same molecule?
Its kcat is 0.164 s⁻¹.

With `CC[N+]1=C(C=CC=CC=C2N(CCCCCC(=O)NCCNC(=O)[C@H](CCCCNC(=O)C3CCN(S(=O)(=O)c4ccccc4-c4c5ccc(=[N+]6CCc7cc(S(=O)(=O)O)ccc76)cc-5oc5cc(N6CCc7cc(S(=O)(=O)O)ccc76)ccc45)CC3)NC(=O)[C@H](Cc3ccccc3)NC(=O)OCc3ccccc3)c3ccc(S(=O)(=O)O)cc3C2(C)C)C(C)(C)c2cc(S(=O)(=O)O)ccc21` [2QC] as the molecule, how does the “Cy5 fluorescence in frozen tumor sections” value [2] read?
The value was “observed”.

And the “overall absolute fluorescence intensity in the tumors compared to non-lysosomotropic substrates 2CQ and 6CQ” value [2]?
Its value is “higher and brighter”.

What about the Km (recombinant cathepsin L) of the same molecule?
The Km was 6.5 ± 1.5 µM.

What about the kcat (recombinant cathepsin L) of the same molecule?
The kcat was 0.095 s⁻¹.

And the Km (recombinant cathepsin V)?
The Km was 0.9 ± 0.1 µM.

What about the kcat (recombinant cathepsin V) of the same molecule?
The kcat was 0.008 s⁻¹.

What does the source list for `CC[N+]1=C(C=CC=CC=C2N(CCCCCC(=O)NCCCC[C@H](NC(=O)[C@H](Cc3ccccc3)NC(=O)OCc3ccccc3)C(=O)NCCNC(=O)C3CCN(S(=O)(=O)c4ccccc4-c4c5ccc(=[N+]6CCc7cc(S(=O)(=O)O)ccc76)cc-5oc5cc(N6CCc7cc(S(=O)(=O)O)ccc76)ccc45)CC3)c3ccc(S(=O)(=O)O)cc3C2(C)C)C(C)(C)c2cc(S(=O)(=O)O)ccc21` [2CQ]?
Km (recombinant cathepsin L): 6.4 ± 0.8 µM; kcat (recombinant cathepsin L): 0.141 s⁻¹; Km (recombinant cathepsin V): 5 ± 0.4 µM; kcat (recombinant cathepsin V): 0.014 s⁻¹

With `CC[N+]1=C(C=CC=CC=C2N(CCCCCC(=O)NCCCCNC(=O)[C@H](CCCCNC(=O)C3CCN(S(=O)(=O)c4ccccc4-c4c5ccc(=[N+]6CCc7cc(S(=O)(=O)O)ccc76)cc-5oc5cc(N6CCc7cc(S(=O)(=O)O)ccc76)ccc45)CC3)NC(=O)[C@H](Cc3ccccc3)NC(=O)OCc3ccccc3)c3ccc(S(=O)(=O)O)cc3C2(C)C)C(C)(C)c2cc(S(=O)(=O)O)ccc21` [4QC] as the molecule, how does the Km (recombinant cathepsin L) read?
The Km was 8.6 ± 1.3 µM.

And the kcat (recombinant cathepsin L)?
Its kcat is 0.396 s⁻¹.

And the Km (recombinant cathepsin V)?
The Km was 4.8 ± 0.2 µM.

And the kcat (recombinant cathepsin V)?
Its kcat is 0.188 s⁻¹.

How did the Km (recombinant cathepsin L) turn out when `CC[N+]1=C(C=CC=CC=C2N(CCCCCC(=O)NCCCC[C@H](NC(=O)[C@H](Cc3ccccc3)NC(=O)OCc3ccccc3)C(=O)NCCCCNC(=O)C3CCN(S(=O)(=O)c4ccccc4-c4c5ccc(=[N+]6CCc7cc(S(=O)(=O)O)ccc76)cc-5oc5cc(N6CCc7cc(S(=O)(=O)O)ccc76)ccc45)CC3)c3ccc(S(=O)(=O)O)cc3C2(C)C)C(C)(C)c2cc(S(=O)(=O)O)ccc21` [4CQ] was run?
The Km was 4.6 ± 0.7 µM.

What about the kcat (recombinant cathepsin L) of the same molecule?
Its kcat is 0.283 s⁻¹.

And the Km (recombinant cathepsin V)?
Its Km is 3.4 ± 0.3 µM.

What about the kcat (recombinant cathepsin V) of the same molecule?
Its kcat is 0.073 s⁻¹.
